Source: the NIST ThermoML archive (doi:10.1021/je100864e)

Experiment: mn = molality of the nth substance listed, in mol/kg
Conditions: 101 kPa, Liquid; for speed of sound: Pulse-echo method

O=C([O-])CC(O)(CC(=O)O)C(=O)O.[Na+] [sodium dihydrogen citrate] + O
Conditions | mass density, 288.15 K [kg/m3] | mass density, 293.15 K [kg/m3] | mass density, 298.15 K [kg/m3] | mass density, 303.15 K [kg/m3] | mass density, 308.15 K [kg/m3] | speed of sound, 288.15 K [m/s] | speed of sound, 293.15 K [m/s] | speed of sound, 298.15 K [m/s] | speed of sound, 303.15 K [m/s] | speed of sound, 308.15 K [m/s]
m1 = 0.0093 | 1000.17 | 999.26 | 998.086 | 996.675 | 995.048 | 1467.7 | 1483.7 | 1497.9 | 1510.2 | 1520.8
m1 = 0.0117 | 1000.44 | 999.519 | 998.341 | 996.93 | 995.3 | 1467.9 | 1483.9 | 1498.1 | 1510.4 | 1521
m1 = 0.0125 | 1000.53 | 999.616 | 998.436 | 997.022 | 995.39 | 1468 | 1484 | 1498.2 | 1510.5 | 1521.1
m1 = 0.0138 | 1000.68 | 999.756 | 998.576 | 997.161 | 995.527 | 1468.1 | 1484.1 | 1498.3 | 1510.6 | 1521.2
m1 = 0.0155 | 1000.87 | 999.956 | 998.772 | 997.353 | 995.72 | 1468.3 | 1484.3 | 1498.5 | 1510.8 | 1521.4
m1 = 0.0163 | 1000.97 | 1000.04 | 998.856 | 997.436 | 995.802 | 1468.4 | 1484.4 | 1498.5 | 1510.8 | 1521.4
m1 = 0.0187 | 1001.24 | 1000.31 | 999.125 | 997.702 | 996.063 | 1468.7 | 1484.7 | 1498.8 | 1511 | 1521.6
m1 = 0.0202 | 1001.42 | 1000.49 | 999.296 | 997.872 | 996.232 | 1468.9 | 1484.8 | 1498.9 | 1511.2 | 1521.8
m1 = 0.0209 | 1001.49 | 1000.56 | 999.364 | 997.94 | 996.299 | 1468.9 | 1484.9 | 1499 | 1511.3 | 1521.8
m1 = 0.024 | 1001.85 | 1000.91 | 999.72 | 998.29 | 996.648 | 1469.3 | 1485.2 | 1499.3 | 1511.5 | 1522.1
m1 = 0.0279 | 1002.29 | 1001.35 | 1000.15 | 998.715 | 997.067 | 1469.8 | 1485.6 | 1499.7 | 1511.9 | 1522.4
m1 = 0.0327 | 1002.84 | 1001.89 | 1000.68 | 999.246 | 997.594 | 1470.2 | 1486 | 1500.1 | 1512.3 | 1522.8
m1 = 0.0376 | 1003.39 | 1002.44 | 1001.22 | 999.776 | 998.119 | 1470.8 | 1486.6 | 1500.6 | 1512.7 | 1523.2
m1 = 0.0409 | 1003.78 | 1002.82 | 1001.6 | 1000.15 | 998.486 | 1471.1 | 1486.9 | 1500.9 | 1513.1 | 1523.5
m1 = 0.047 | 1004.47 | 1003.49 | 1002.27 | 1000.81 | 999.141 | 1471.8 | 1487.6 | 1501.5 | 1513.6 | 1524
m1 = 0.0681 | 1006.85 | 1005.84 | 1004.59 | 1003.11 | 1001.41 | 1474 | 1489.7 | 1503.5 | 1515.5 | 1525.8
m1 = 0.0937 | 1009.71 | 1008.67 | 1007.38 | 1005.86 | 1004.15 | 1476.8 | 1492.3 | 1505.9 | 1517.8 | 1527.9
m1 = 0.1194 | 1012.55 | 1011.47 | 1010.14 | 1008.6 | 1006.86 | 1479.5 | 1494.8 | 1508.3 | 1520 | 1530.1
m1 = 0.144 | 1015.25 | 1014.13 | 1012.77 | 1011.2 | 1009.44 | 1482 | 1497.2 | 1510.5 | 1522.1 | 1532
m1 = 0.1678 | 1017.83 | 1016.68 | 1015.29 | 1013.7 | 1011.91 | 1484.6 | 1499.6 | 1512.7 | 1524.2 | 1534
m1 = 0.1911 | 1020.35 | 1019.17 | 1017.76 | 1016.13 | 1014.32 | 1487 | 1501.8 | 1514.9 | 1526.2 | 1535.8
m1 = 0.2165 | 1023.07 | 1021.86 | 1020.42 | 1018.77 | 1016.93 | 1489.5 | 1504.1 | 1517 | 1528.2 | 1537.8
m1 = 0.2412 | 1025.7 | 1024.45 | 1022.98 | 1021.31 | 1019.45 | 1492 | 1506.5 | 1519.3 | 1530.3 | 1539.8
m1 = 0.2934 | 1031.2 | 1029.89 | 1028.36 | 1026.63 | 1024.72 | 1497.3 | 1511.5 | 1524 | 1534.7 | 1543.9
m1 = 0.3205 | 1034.04 | 1032.69 | 1031.13 | 1029.38 | 1027.44 | 1500 | 1514 | 1526.3 | 1537 | 1546
m1 = 0.3395 | 1036.01 | 1034.64 | 1033.06 | 1031.28 | 1029.33 | 1501.8 | 1515.8 | 1528 | 1538.5 | 1547.5
m1 = 0.3728 | 1039.43 | 1038.03 | 1036.41 | 1034.6 | 1032.62 | 1505.1 | 1518.8 | 1530.9 | 1541.2 | 1550
m1 = 0.3936 | 1041.57 | 1040.14 | 1038.5 | 1036.67 | 1034.67 | 1507.1 | 1520.7 | 1532.7 | 1542.9 | 1551.6
